From patent US11312722B2, “Hsp90 inhibitors and uses thereof” (TRUSTEES OF BOSTON UNIVERSITY, priority 2019, dated 2022)

Legend:
[1] = target: Hsp90 (C. albicans whole cell lysate) (Candida albicans (strain SC5314 / ATCC MYA-2876) (Yeast), UniProt P46598); test: biochemical; assay type: binding; settings: for C. alb Active (biochemical): Yes/No call; for EC50: read-out: C. alb EC50
Experimental: (§1) All analogs were assessed for Hsp90 binding affinity using a fluorescence polarization (FP)-based equilibrium competition assay in fungal and human whole cell lysates. […] Using lysates, the relative potency and selectivity for fungal Hsp90 was measured versus the entire ensemble of human Hsp90 isoforms in microplate format using small amounts of test materials. […] Thermal shift assays were performed under saturating ligand conditions, i.e. equimolar concentrations (10 μM) of protein and ligand. As a result, they provided qualitative evidence of target binding, but not a quantitative measurement of ligand affinity. For quantitation, a ligand dissociation constant (Ki) for key compounds was also determined using purified NBDs in FP assays and KD measurements were made by surface plasmon resonance (SPR) using a Biacore instrument. Finally, all analogs were assessed for whole cell antifungal activity against the pathogens C. albicans and C. neoformans.
(§2) FP assays. Whole cell lysates were prepared for FP assays as described previously. Total protein concentration of human and yeast lysates was determined by Bradford assay. […] Serial dilutions of test Hsp90 inhibitors were then assayed under these same conditions to monitor loss of fluorescence polarization as an indicator of probe displacement from Hsp90. […] Titrations of test compound in 25 μL of binding buffer (supplemented with 0.1 mg/mL bovine gamma globulin), were mixed with an equal volume of freshly prepared whole-cell lysate spiked with Cy3-GdA (0.1 nM). Plates were incubated at room temperature for 4.5 h to achieve equilibrium binding for the geldanamycin-based probe. […] Non-linear 4-parameter curve fitting of raw displacement data was performed in GraphPad Prism 5.0 to determine EC50 values as a measure of relative Hsp90-binding affinity. Results were normalized to the value determined for GdA in lysate of each cell type.
(§3) Statistical methods. […] In calculating the error of selectivity determinations, the fractional error of measurements in each species was summed to yield a composite error for the derived ratio.

[2] = test system: C. neoformans (Strain H99); test: Antifungal sensitivity testing (MIC), C. neoformans H99; assay type: cell-based; settings: for MIC80 / MIC90: Cryptococcus neoformans; for MIC80: read-out: C. neo MIC80; for MIC90: read-out: C. neo MIC90; for C. neo Active (cells): Yes/No call
Experimental: Color scale bar: no growth inhibition (green) to complete inhibition (black). Each shaded box represents the mean of technical duplicates. The experiment was repeated as an independent biological replicate to confirm results.
Minimum inhibitory concentration (MIC) value for compounds against C. neoformans (Strain H99) was determined in dose-response format, in technical duplicate. Experiments were conducted in RPMI medium at 37° C. for 48 h. Relative viable cell number was measured by standard dye reduction (resazurin) assay.
Yeast strains and culture conditions. Strains used in this study were C. albicans CaCi2 (clinical isolate 2), [58] SC5314, [59] and C. neoformans H99. […] Active cultures were maintained on solid (2% agar) yeast extract peptone (YPD, 1% yeast extract, 2% bactopeptone, 2% glucose) at 4° C. for no more than one month.
Antifungal sensitivity testing. […] Each compound was tested in duplicate in at least two independent experiments. […] Plates were photographed after 24 h of incubation at 30° C.

[3] = mouse liver microsomes; for % remaining at 15 min (NADPH-free): NADPH-free control; for % remaining at 15 min / % remaining at 60 min: with NADPH
in vitro = settings: both, CD-1, mouse; for half-life: microsomes
[4] = target: Hsp90 (C. neoformans whole cell lysate) (Cryptococcus neoformans, UniProt J9VVA4); assay type: binding; settings: for EC50: read-out: C. neo EC50; for C. neo Active (biochemical): Yes/No call
Experimental: as §1, §2, §3

[5] = test system: Hsp90 (C. neoformans whole cell lysate); assay type: binding; settings: for C. neo Selectivity (FS): C. neo FS calculated using EC50
Experimental: as §1, §2, §3

[6] = test system: Hsp90 (C. albicans whole cell lysate); test: biochemical; assay type: binding; settings: for C. alb Selective: Yes/No call
Experimental: as §1, §2, §3

Hsp90 (C. neoformans whole cell lysate) (Cryptococcus neoformans, UniProt J9VVA4), sequence (J9VVA4 1-699): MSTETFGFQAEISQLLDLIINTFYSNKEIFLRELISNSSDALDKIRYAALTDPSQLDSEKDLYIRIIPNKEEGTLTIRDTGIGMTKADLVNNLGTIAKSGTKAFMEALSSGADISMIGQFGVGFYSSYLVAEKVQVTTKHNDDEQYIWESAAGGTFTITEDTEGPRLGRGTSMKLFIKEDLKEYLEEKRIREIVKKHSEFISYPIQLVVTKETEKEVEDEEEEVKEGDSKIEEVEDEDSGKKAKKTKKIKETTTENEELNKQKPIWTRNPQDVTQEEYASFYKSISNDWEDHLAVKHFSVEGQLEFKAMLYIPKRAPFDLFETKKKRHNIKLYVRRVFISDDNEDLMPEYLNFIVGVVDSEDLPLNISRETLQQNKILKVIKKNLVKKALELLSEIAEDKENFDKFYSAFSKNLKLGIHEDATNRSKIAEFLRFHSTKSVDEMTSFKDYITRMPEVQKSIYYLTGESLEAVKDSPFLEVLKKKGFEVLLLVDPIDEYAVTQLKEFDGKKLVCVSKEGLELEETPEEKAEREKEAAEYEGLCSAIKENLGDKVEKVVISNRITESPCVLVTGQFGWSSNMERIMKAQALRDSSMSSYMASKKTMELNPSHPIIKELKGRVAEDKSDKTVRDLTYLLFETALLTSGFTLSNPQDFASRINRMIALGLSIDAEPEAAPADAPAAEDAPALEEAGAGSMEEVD

Row | half-life at 1 μM (in vitro; liver microsomes) [min] | SMILES | C. alb Active (biochemical) [1] | MIC80 [2] [µM] | MIC90 [2] [µM] | % remaining at 15 min (NADPH-free) [3] [%] | % remaining at 15 min [3] [%] | % remaining at 60 min [3] [%] | CLint scaled at 1 μM (in vitro; liver microsomes) [mL/min/kg] | half-life (in vitro) [min] | EC50 [4] [nM] | C. neo Selectivity (FS) [5] | EC50 [1] [nM] | C. alb Selectivity (FS) [6] | C. alb Selective [6] | C. neo MIC80 [2] [µM] | C. neo MIC90 [2] [µM] | C. neo Active (biochemical) [4] | C. neo selective ([5]; Yes/No call) | C. neo Active (cells) [2]
1 |  | Cc1cccc(-c2cc(Nc3cc(O)cc(O)c3C(=O)N3Cc4cn[nH]c4C3)n(C)n2)c1 [Compound 111, 5-((1-Methyl-3-(3-methylphenyl)-1H-pyrazol-5-yl)amino)-4-(1H,4H,5H,6H-pyrrolo[3,4-c]pyrazole-5-carbonyl)benzene-1,3-diol] | Yes | > 25 | > 25 | 115.3 | 20.2 | 1.8 | 582 | 9.4 |  |  |  |  |  |  |  |  |  | 
2 |  | Cc1cccc(-n2nc(C)c(Nc3cc(O)cc(O)c3C(=O)N3Cc4ccccc4C3)c2C)c1 [ACSM01486, (2-((3,5-Dimethyl-1-(m-tolyl)-1H-pyrazol-4-yl)amino)-4,6-dihydroxyphenyl)(isoindolin-2-yl)methanone] | Yes | > 25 | > 25 |  |  |  |  |  | 34 | 43.4 | 2060 | 0.7 | No |  |  |  |  | 
3 |  | Cn1nc(-c2ccccc2C(F)(F)F)cc1Nc1cc(O)cc(O)c1C(=O)N1Cc2ccncc2C1 [ACSM01491] | Yes |  |  |  |  |  |  |  | 47 | 62.2 | 724 | 3.9 | No | >25 | >25 |  |  | 
4 |  | Cc1cccc(-c2cc(Nc3cc(O)cc(O)c3C(=O)N3Cc4ccc(N5CCN(C)CC5)cc4C3)n(C)n2)c1 [ACSM01279] | Yes |  |  |  |  |  |  |  | 449 | 18.3 | 2150 | 3.7 | No | >25 | >25 |  |  | 
5 |  | COc1ccc(Cn2nc(-c3ccccc3)cc2Nc2cc(O)cc(O)c2C(=O)N2Cc3ccncc3C2)cc1 [BUCMD00433] | Yes |  |  |  |  |  |  |  | 75 | 13 | 11 | 31 | Yes | >25 | >25 | Yes | Yes | No
6 |  | COc1cccc(-c2cc(Nc3cc(O)cc(O)c3C(=O)N3Cc4ccncc4C3)n(C)n2)c1 [ACSM01492] | Yes |  |  |  |  |  |  |  | 258 | 46.2 | 10600 | 1.1 | No | >25 | >25 |  |  | 
7 |  | COc1ccccc1-n1nc(C)c(Nc2cc(O)cc(O)c2C(=O)N2Cc3ccccc3C2)c1C [ACSM01493, (2,4-Dihydroxy-6-((1-(2-methoxyphenyl)-3,5-dimethyl-1H-pyrazol-4-yl)amino)phenyl)(isoindolin-2-yl)methanone] | Yes | > 25 | > 25 |  |  |  |  |  | 191 | 7.2 | 1060 | 1.2 | No |  |  |  |  | 
8 |  | O=C(c1c(O)cc(O)cc1Nc1cc(-c2ccccc2)nn1-c1ccccc1)N1Cc2ccccc2C1 [ACSM01305] | Yes |  |  |  |  |  |  |  | 577 | 8.1 | 1890 | 0.9 | No | 6.25 | 3 |  |  | 
9 |  | Cn1nccc1Nc1cc(O)cc(O)c1C(=O)N1CC2CC2C1 (stereo not drawn) [ACSM01301] | No |  |  |  |  |  |  |  | 2400 | 5 | > 10000 |  | No | >25 | >25 |  |  | 
10 |  | CN1CCN(c2ccc3c(c2)CN(C(=O)c2c(O)cc(O)cc2Nc2cc(-c4cccc(C(F)(F)F)c4)nn2C)C3)CC1 [ACSM01487] | Yes |  |  |  |  |  |  |  | 55 | 50.1 | 1160 | 2.3 | No | >25 | >25 |  |  | 
11 |  | COc1cccc(-c2cc(Nc3cc(O)cc(O)c3C(=O)N3Cc4ccc(N5CCN(C)CC5)cc4C3)n(C)n2)c1 [ACSM01375] | No |  |  |  |  |  |  |  | 1240 | 9.6 | > 10000 |  | No | >25 | >25 |  |  | 
12 | 2.7 | Cn1nc(C2CCCCC2)cc1Nc1cc(O)cc(O)c1C(=O)N1Cc2cn[nH]c2C1 [Compound 105, 5-((3-Cyclohexyl-1-methyl-1H-pyrazol-5-yl)amino)-4-(1H,4H,5H,6H-pyrrolo[3,4-c]pyrazole-5-carbonyl)benzene-1,3-diol] |  |  |  | 103.6 | 2.3 | 0 | 1990 |  |  |  |  |  |  |  |  |  |  | 
13 |  | Cn1nc(-c2ccc(C(C)(C)C)cc2)cc1Nc1cc(O)cc(O)c1C(=O)N1Cc2cn[nH]c2C1 [Compound 129, 5-((3-(4-tert-Butylphenyl)-1-methyl-1H-pyrazol-5-yl)amino)-4-(1H,4H,5H,6H-pyrrolo[3,4-c]pyrazole-5-carbonyl)benzene-1,3-diol] |  | > 25 | > 25 | 97.9 | 21.1 | 0.5 | 847 | 6.4 |  |  |  |  |  |  |  | Yes |  | No
14 |  | CC(C)c1ccc(Cn2nccc2Nc2cc(O)cc(O)c2C(=O)N2Cc3ccccc3C2)cc1 [Compound 83, (2,4-Dihydroxy-6-((1-(4-isopropylbenzyl)-1H-pyrazol-5-yl)amino)phenyl)(isoindolin-2-yl)methanone] | Yes | > 25 | > 25 | 109.1 | 3.4 | 1.8 | 1770 | 3.1 |  |  |  |  |  |  |  |  |  | 
